The values that follow come from patent US20180280340A1, “METHOD OF TREATING AND PREVENTING INFECTIONS” (priority 2017, published 2018).

Assay [1] concerns G. vaginalis. As to the kind of experiment: broth microdilution assay to determine MIC and sub-MICs of BPO. The assay is classed as cell-based. To be noted: Gardnerella vaginalis, DMSO solution of BPO, read-out: concentration required to completely inhibit the growth of G. vaginalis (MIC). From the text: Experimental Details: At a first step of the experiment, a broth microdilution assay was used to determine MIC and sub-MICs of BPO against G. vaginalis, a leading microorganism responsible for Bacterial Vaginosis. […] Note that in this test, the prototype of the vaginal gel was not used, but a DMSO solution of PBO (solution required for 96-well microplate) was used. Consequently, the inhibitory concentration for G. vaginalis found in this test cannot be compared with the inhibitory concentrations for BPO-gel as found in the previous experiments (Xu et al., 2013).
A general note: In broth dilution the organism is exposed to a series of concentrations in liquid medium.

Another assay concerns G. vaginalis biofilm. Put plainly: biofilm production inhibition, colorimetric biofilm staining. The class given is cell-based, Gardnerella vaginalis. How it is done: As a second step, the concentrations, which inhibited biofilm production, were determined. Several concentrations of BPO were tested: 0, 31.25, 62.5, 125, and 250 μg/mL. A colorimetric method was used for biofilm staining and to determine the biofilm integrity percent after the treatment. Note that in this test, the prototype of the vaginal gel was not used, but a DMSO solution of PBO (solution required for 96-well microplate) was used. Consequently, the inhibitory concentration for G. vaginalis found in this test cannot be compared with the inhibitory concentrations for BPO-gel as found in the previous experiments (Xu et al., 2013).

The subject of assay [2] is G. vaginalis. Put plainly: bacterial cells viability under sub-MIC BPO treatment. To be noted: highest sub-MIC concentration of 250 μg/mL. The assay is classed as cell-based, Gardnerella vaginalis.

`O=C(OOC(=O)c1ccccc1)c1ccccc1` [BPO, Benzoyl peroxide]: the MIC in the assay on G. vaginalis [1] was more than 250 µg/mL. Moreover, the biofilm prevention entry in the assay on G. vaginalis biofilm (125 μg/mL BPO) was “more than 40%”. In the assay on G. vaginalis biofilm (Gardnerella vaginalis, 250 μg/mL BPO (sub-MIC), compared with the control, read-out: biofilm formation inhibited), the inhibition at 250 µg/mL was approximately 80%. Besides, the biofilm integrity in the assay with G. vaginalis biofilm (around 250 μg/mL BPO) was determined as 20%. The bacterial cells viability entry in the assay with G. vaginalis [2] is listed as “not influenced”.
